Laboratory results reported in US20070149456A1, “Epithelial sodium channel inhibiting agents and uses therefor” (University of Pittsburgh, priority 2005, published 2007).
Entries after “also recorded” stand apart in the source; their conditions may differ.

Target: T1, αRtripleAβγ (Mus musculus, UniProt Q61180+Q9WU38+Q9WU39, R205A/R208A/R231A)
T1 construct: expressed in transfected cells; host or cells: Xenopus laevis oocytes (cRNA injection)
T1 sequence (Q61180 1-699 R205A/R208A/R231A): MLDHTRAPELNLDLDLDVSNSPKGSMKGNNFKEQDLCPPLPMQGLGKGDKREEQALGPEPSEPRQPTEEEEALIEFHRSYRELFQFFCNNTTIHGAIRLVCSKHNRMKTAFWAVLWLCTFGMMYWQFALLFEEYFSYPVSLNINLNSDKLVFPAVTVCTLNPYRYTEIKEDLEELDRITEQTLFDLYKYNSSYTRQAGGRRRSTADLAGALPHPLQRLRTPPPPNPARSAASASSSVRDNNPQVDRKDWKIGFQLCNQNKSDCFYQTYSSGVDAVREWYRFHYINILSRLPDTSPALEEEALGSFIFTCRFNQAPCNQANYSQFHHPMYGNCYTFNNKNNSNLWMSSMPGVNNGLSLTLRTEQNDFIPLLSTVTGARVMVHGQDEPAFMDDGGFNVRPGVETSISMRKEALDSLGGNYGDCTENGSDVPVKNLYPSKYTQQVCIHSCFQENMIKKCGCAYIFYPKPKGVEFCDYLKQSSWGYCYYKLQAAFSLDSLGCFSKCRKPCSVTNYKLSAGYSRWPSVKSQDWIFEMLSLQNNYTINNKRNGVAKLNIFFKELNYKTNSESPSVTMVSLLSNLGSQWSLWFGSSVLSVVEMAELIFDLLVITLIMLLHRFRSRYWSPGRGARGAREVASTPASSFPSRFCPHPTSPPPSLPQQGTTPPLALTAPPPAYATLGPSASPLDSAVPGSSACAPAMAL
T1 sequence (Q9WU38 1-638): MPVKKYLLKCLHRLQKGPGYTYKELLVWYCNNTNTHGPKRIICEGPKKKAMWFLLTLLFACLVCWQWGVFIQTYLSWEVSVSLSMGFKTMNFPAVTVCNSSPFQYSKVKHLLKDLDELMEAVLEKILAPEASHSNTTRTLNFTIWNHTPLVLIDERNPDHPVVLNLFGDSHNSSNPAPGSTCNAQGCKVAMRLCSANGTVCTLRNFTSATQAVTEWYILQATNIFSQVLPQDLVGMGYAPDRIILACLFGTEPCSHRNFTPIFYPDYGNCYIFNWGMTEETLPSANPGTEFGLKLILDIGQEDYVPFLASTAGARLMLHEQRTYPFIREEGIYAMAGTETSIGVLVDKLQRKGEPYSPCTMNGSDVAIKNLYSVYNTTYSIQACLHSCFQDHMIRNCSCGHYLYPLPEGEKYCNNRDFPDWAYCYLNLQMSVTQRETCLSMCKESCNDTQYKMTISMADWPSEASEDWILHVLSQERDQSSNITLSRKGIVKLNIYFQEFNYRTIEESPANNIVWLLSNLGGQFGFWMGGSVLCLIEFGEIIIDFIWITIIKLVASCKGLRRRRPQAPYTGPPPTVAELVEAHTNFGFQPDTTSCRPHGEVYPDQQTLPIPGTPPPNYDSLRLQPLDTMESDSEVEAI
T1 sequence (Q9WU39 1-655): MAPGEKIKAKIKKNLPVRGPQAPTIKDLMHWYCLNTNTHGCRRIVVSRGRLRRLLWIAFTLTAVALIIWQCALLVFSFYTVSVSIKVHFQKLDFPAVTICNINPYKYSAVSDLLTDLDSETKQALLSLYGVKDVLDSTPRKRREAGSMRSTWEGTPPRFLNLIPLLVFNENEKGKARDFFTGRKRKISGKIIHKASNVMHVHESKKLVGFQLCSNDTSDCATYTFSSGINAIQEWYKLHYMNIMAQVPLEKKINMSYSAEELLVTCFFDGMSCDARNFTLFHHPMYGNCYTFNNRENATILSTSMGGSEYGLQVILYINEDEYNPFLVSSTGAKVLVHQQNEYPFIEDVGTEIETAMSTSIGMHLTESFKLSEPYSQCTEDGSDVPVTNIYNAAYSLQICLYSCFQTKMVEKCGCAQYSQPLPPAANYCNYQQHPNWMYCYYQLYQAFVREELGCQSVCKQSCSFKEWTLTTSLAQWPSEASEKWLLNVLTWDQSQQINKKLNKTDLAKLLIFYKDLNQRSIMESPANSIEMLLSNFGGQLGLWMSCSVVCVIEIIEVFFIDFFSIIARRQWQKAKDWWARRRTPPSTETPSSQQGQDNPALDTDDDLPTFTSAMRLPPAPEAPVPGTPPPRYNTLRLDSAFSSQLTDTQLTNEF
Experiment: Two-electrode voltage clamp in oocytes expressing channels lacking furin cleavage of the α subunit
Format: cell-based
Details: 1 μM α-26
Source text: Oocyte Expression—cRNAs for α, β, γ mouse ENaC (wild-type and mutant) subunits and mouse prostasin were synthesized with T3 or T7 m-Message mMachineTM (Ambion, Austin, Tex.). Subunits carrying furin cleavage consensus site mutations and the corresponding wild-type subunits have amino-terminal HA and carboxyl-terminal V5 tags (Hughey, R. P., Bruns, J. B., Kinlough, C. L., Harkleroad, K. L., Tong, Q., Carattino, M. D., Johnson, J. P., Stockand, J. D., and Kleyman, T. R. (2004) J. Biol. Chem. 279, 18111-18114 18). Stage V-VI Xenopus laevis oocytes were pretreated with 1.5 mg/ml of type IV collagenase and injected with 0.5-2 ng of cRNA/subunit. Injected oocytes were maintained as previously reported (Carattino, M. D., Hill, W. G., and Kleyman, T. R. (2003), Arachidonic Acid Regulates Surface Expression of Epithelial Sodium Channels, J Biol. Chem. 278, 36202-36213 29).
Two-electrode Voltage Clamp—Two-electrode voltage clamp (TEV) was performed as previously described (Carattino, M. D., Hill, W. G., and Kleyman, T. R. (2003) J Biol. Chem. 278, 36202-36213 29). The extracellular solution (TEV solution) was (in mM): 110 NaCl, 2 KCl, 1.54 CaCl2, 10 HEPES, pH 7.4, or otherwise as indicated. […] ENaC-mediated whole cell Na^+ currents, at −60 mV,were defined as the amiloride-sensitive component of the current. […]

Ac-DLRGALPHPLQRLRTPPPPNPARSAR-NH2 [α-26]
block of channels: does not block; also recorded: not blocked
